Experimental data reported in US10966944B2, “[2.2.2] bicyclic derivatives and methods of use” (ASE PHARMACEUTICALS, LLC, priority 2008, dated 2021).

Tests used:
[1] = tested on: epilepsy patients; experiment: Clinical trials in epilepsy patients and volunteers (Example 1); format: in vivo, human
Protocol: Clinical trials involving administration of sodium bicyclo-[2.2.2]-octane-2-carboxylate were performed on 30 epilepsy patients and 20 volunteers in two clinics in Moscow. […] Classification of the patients was done in accordance with International Classification of Epilepsy and Epileptic Syndromes (ILAE, 1989). Some of the subjects also suffered from addictive disorders (alcoholism, drug addiction). In 73% of trial subjects, sodium bicyclo-[2.2.2]-octane-2-carboxylate administration reduced the frequency, intensity, and duration of epileptic seizures. […] It normalized cerebral blood circulation and increased the sympathetic tonus of the patients. […] The following were used to assess trial subjects: • Visual checkup • EEG • CT • MRT • Clinical blood and urine tests • general blood test • biochemical blood test • general urine tests • Inspection and checkup of organs and systems: • respiratory system • cardiovascular system • alimentary system • urinary system • Neurological status • Concurrent disease status.

[2] = tested on: adult epilepsy patients; experiment: Randomized open-controlled study, add-on to base therapy: frequency and severity of epileptic seizures (Example 2); format: in vivo, human
Protocol: The study of sodium bicyclo-[2.2.2]-octane-2-carboxylate as an addition to a base therapy was conducted in the group of adult epilepsy patients. Sodium bicyclo-[2.2.2]-octane-2-carboxylate was administered during 10 weeks. Thirty patients in both hospitals (twenty-six males and four females) were included in the studies.
Base therapy was administered in accordance with recommendations by the International Anti-epileptic League (1989). During the study, the patients continued to receive pathogenetic treatment. Medication names, doses and the duration of any treatment were registered in patients' medical records (MR). The patients continued receiving their standard prescribed medications and were not switched to a different drug at any time during the study.
During the introductory period of 7 to 10 days, the patients were examined; base therapy scheme was being finalized and was described in a standard protocol. In accordance with the protocol, the patients were screened for inclusion/exclusion factors. Only those patients who signed an informed consent and who satisfied the inclusion criteria were included in the study. The frequency of epileptic seizures in patients receiving pre-sodium bicyclo-[2.2.2]-octane-2-carboxylate base therapy varied from 1 to 16 times a month.
(§1) At the start of sodium bicyclo-[2.2.2]-octane-2-carboxylate protocol, all patients began receiving sodium bicyclo-[2.2.2]-octane-2-carboxylate at 100 mg four times a day. If the clinical effect was absent by day 14, the dose of Sodium bicyclo-[2.2.2]-octane-2-carboxylate was increased to 150 mg. Patients with various forms of epilepsy were selected for the study (Table 2).
(§2) Main study parameters included efficiency criteria such as the number and severity of seizures, and safety criteria such as the clinical and laboratory tests. The complete examination included: • 1) Neurological exams. • 2) Computer-assisted tomography (CAT scan). • 3) MRI of the brain. • 4) General blood work: baseline before Sodium bicyclo-[2.2.2]-octane-2-carboxylate treatment, 2 weeks and 1.5 months after the beginning of the treatment. • 5) General urine analysis. • 6) Blood biochemistry. • 7) ECG. • 8) EEG and pharmaco-EEG. Physical exams and testing results were registered by a research physician in the MRs and were analyzed by statistical methods.
To evaluate treatment efficacy, the frequency and severity of epileptic seizures were monitored. […] In the majority of patients suffering from partial epilepsy, seizures became less severe and occurred less frequently. The patients reported feeling better, with improvement of mood, work efficiency, and sleep quality. […]

[3] = tested on: adult epilepsy patients; experiment: General blood work before and after treatment (Example 2, safety); format: in vivo, human
Protocol: as §1, §2
(§3) The effective therapeutic dose was determined as 400 mg per day in 60% of the patients, and 600 mg per day in the remaining 40%. Safety aspects of sodium bicyclo-[2.2.2]-octane-2-carboxylate were evaluated during the treatment and after the treatment by monitoring the clinical and laboratory parameters.
(§4) Before-before Sodium bicyclo-[2.2.2]-octane-2-carboxylate treatment After-after Sodium bicyclo-[2.2.2]-octane-2-carboxylate treatment. No statistically significant differences in any other parameters before and after Sodium bicyclo-[2.2.2]-octane-2-carboxylate treatment were detected.

[4] = tested on: adult epilepsy patients; experiment: Blood chemistry before and after treatment (Example 2, safety); format: in vivo, human
Protocol: as §1, §2, §3, §4

[5] = tested on: adult epilepsy patients; experiment: EEG parameters before and after treatment (Example 2); format: in vivo, human; settings: averaged, after treatment (before treatment: 197.7)
Description: as §2

[6] = tested on: adult epilepsy patients; experiment: ECG recording during the study (Example 2); format: in vivo, human; settings: patients with extrasystolia and tachycardia
Description: as §2, with “methods. ECGs were recorded before the beginning of the treatment, during the course of the study (on a regular basis), and immediately after the study had been completed. […] In the patients with extrasystolia and tachycardia, extrasystolia was not observed by the end of the first treatment month, while the heart rate decreased on average from 88/min to 80/min. In the patients with bradycardia, sinus rhythm dropped further.” for “methods.”

[7] = tested on: adult epilepsy patients; experiment: Dysphoria and general condition in the study patients (Example 2); format: in vivo, human
Protocol: During each scheduled visit and at the completion of the study, complete physical examination of each patient was performed. Physical exams included patients' general condition, examinations of the skin, ENT, lungs, heart, stomach, lymph nodes, central nervous system, etc. Valid data obtained before beginning of Sodium bicyclo-[2.2.2]-octane-2-carboxylate treatment was entered in appropriate sections of MRs. The data collected during the treatment (including the observed side effects) was entered in the Brief Description sections of the MRs. […] This effect correlated with disappearance of alcohol addiction.

[8] = average, after treatment (before: 4.75)
[9] = deviation after vs before treatment

With `O=C([O-])C1CC2CCC1CC2.[Na+]` (centres unmarked) [Sodium bicyclo-[2.2.2]-octane-2-carboxylate] the “trial subjects with reduced frequency, intensity, and duration of epileptic seizures” value ([1]; 30 epilepsy patients and 20 volunteers, two clinics) was 73%, the “side effects in human clinical trials” value ([1]; human clinical trials) was “without significant negative side effects” and the effective therapeutic dose ([2]; in 60% of the patients) was 400 mg per day. The effective therapeutic dose ([2]; in the remaining 40% of the patients) was 600 mg per day, the “patients with decrease in seizure frequency (number)” value ([2]; of 30 patients) was 22 patients and the “patients with decrease in seizure frequency (percent)” value ([2]; of 30 patients) was 73.3%. The “Color Index, After” value ([3]; average, after treatment (before: 0.895)) was 0.928, the “Eosinophiles (%), After” value ([3]; average, after treatment (before: 2.53)) was 2.53% and the “Monocytes (%), After” value ([3]; average, after treatment (before: 3.0)) was 2.8%. For the same compound, the Erythrocytes, After [3, 8] was 4.79 10^12/L, the “ESR, After” value ([3]; average, after treatment (before: 7.3)) was 5.2 mm and the Leukocytes, After ([3]; average, after treatment (before: 7.9)) was 7.47 10^9/L. The “Lymphocytes (%), After” value ([3]; average, after treatment (before: 20.9)) was 21.1%, the “Neutrophiles (%), After” value ([3]; average, after treatment (before: 72.7)) was 71.2% and the “Hemoglobin, After” value ([3]; average, after treatment (before: 143.4), in g/L (unit assumed)) was 140.13. The “Platelets, After” value ([3]; average, after treatment (before: 205.5), in 10^9/L (unit assumed)) was 230.3, the “Color Index, % dev.” value [3, 9] was 3.7% and the “ESR, % dev.” value [3, 9] was 28.8%. The “Eosinophiles, % dev.” value [3, 9] was 0%, the “Erythrocytes, % dev.” value [3, 9] was 1.48% and the “Hemoglobin, % dev.” value [3, 9] was 2.3%. For the same compound, the “Leukocytes, % dev.” value [3, 9] was 5.95%, the “Lymphocytes, % dev.” value [3, 9] was 0.94% and the “Monocytes, % dev.” value [3, 9] was 6.7%. For the same compound, the “Neutrophiles, % dev.” value [3, 9] was 2.06%, the “Platelets, % dev.” value [3, 9] was 12.07% and the “effects on the blood counts and blood biochemistry” value ([3]; during and after the treatment) was “No unfavorable effects”. For the same compound, the “changes in blood and urine tests” value ([3]; summary of the study) was “did not cause any changes”, the Glucose, After [4, 8] was 4.48 mmol/L and the General bilirubin, After ([4]; average, after treatment (before: 14.3)) was 11.5 µmol/L. The “ACT, After” value ([4]; average, after treatment (before: 45.1)) was 24.6, the “ALT, After” value ([4]; average, after treatment (before: 46.2)) was 21.5 and the Creatinin, after ([4]; average, after treatment (before: 70.5)) was 69.4 µmol/L. For the same compound, the General Protein, After ([4]; average, after treatment (before: 75.5)) was 77.4 g/L, the “ACT, % dev.” value [4, 9] was 45.4% and the “ALT, % dev.” value [4, 9] was 53.5%. For the same compound, the “Creatinin, % dev.” value [4, 9] was 1.6%, the “General Protein, % dev.” value [4, 9] was 2.5% and the “General bilirubin, % dev.” value [4, 9] was 19.6%. The “Glucose, % dev.” value [4, 9] was 5.7%, the “EEG parameters (focus of pathological activity)” value [5] was 151.5 μV and the heart rate ([6]; average, decreased from 88/min) was 80 min⁻¹. The extrasystolia ([6]; by the end of the first treatment month) was “not observed”, the “patients' behavior and the functions of major organs and systems” value ([7]; during 10 weeks of treatment) was “not negatively affected” and the “cases with effective treatment of dysphoria or dysphoria-like conditions” value ([7]; of all cases) was 93.3%. For the same compound, the “dysphoria and paroxysmal activity on EEG” value ([7]; patients who suffered from alcohol addiction in the past, after 1.5 month of treatment) was “disappeared or decreased” and the melting point was 84 to 86 °C.
